Source: paper PMC11674118, “New High-Affinity Peptide Ligands for Kv1.2 Channel: Selective Blockers and Fluorescent Probes” (Cells, 2024)
Where two headings read alike, the source gives them in different places. *1 amine or outer side, *2 acyl side, *3 side chain or, on linkers, in order; H or OH if unused. Where a SMILES comes first, the peptide text is derived from it. Bridges are numbered along the chain shown (N, C = ends). [ ]: non-standard residue; d: D form. The star is where a group is joined. X1 = N=c1ccc2c(-c3ccccc3C(=O)*)c3ccc(N)c(S(=O)(=O)O)c3oc-2c1S(=O)(=O)O; NMeGABA = CN(CCCC(=O)[*:2])[*:1]

Key:
[1] = molecular target: T1, human Kv1.2 channel, mKate2-Kv1.2(S371T) (K-Kv1.2) (Homo sapiens, UniProt P16389, S371T); experiment: Binding of fluorescent ligands to K-Kv1.2 on living Neuro2a cells (confocal microscopy, Rav titration); settings: concentration dependence of binding
T1 construct: expressed in transfected cells; host or cells: mouse neuroblastoma Neuro2a cells, transient transfection with pmKate2-KCNA2m1
Method: (§1) Cellular organelles were stained as described earlier. To analyze the binding of Kv1.2 with fluorescent ligands, A-HgTx (0.06–2 nM) or HgTx-G (0.06–0.5 nM) was added to cells in a complete medium for 90–120 min. To analyze competitive binding, HgTx-G (0.5 nM) was added to cells together with the studied peptide (0.1–0.8 nM HgTx1; 0.05–0.8 nM MgTx; 5–20 nM ChTx; 50–400 nM AgTx2; 0.05–0.2 nM Ce1; 0.2–5 nM Ce4) in a complete medium for 90–120 min.
(§2) Microscopy was carried out using an SP2 confocal microscope with an HCX PL APO 63×/1.2 objective (Leica Microsystems GmbH, Wetzlar, Germany). The size of the confocal diaphragm corresponded to 1 Airy disk. Typical voxel size was 0.06 × 0.06 × 0.9 µm except for serial ligand binding experiments, where its size was 0.23 × 0.23 × 0.9 µm. […]
(§3) Quantitative analysis of the interaction of fluorescent ligands with Kv1.2 was carried out using Image J software (version 1.48, National Institute of Health, Bethesda, MD, USA) as described earlier. This analysis was based on calculating the ratio of the fluorescent intensities of the bound ligand to the channel (Ri) in each selected region of interest on the plasma membrane for the confocal images of 20–25 measured cells, followed by calculating the average value (Rav) and standard deviation. […]

[2] = molecular target: T2, human Kv1.2 channel, mKate2-Kv1.2(S371T, N469L) (K-Kv1.2m2) (Homo sapiens, UniProt P16389, N469L/S371T); experiment: Binding of fluorescent ligand to K-Kv1.2m2 on living Neuro2a cells (confocal microscopy, Rav titration)
T2 construct: expressed in transfected cells; host or cells: mouse neuroblastoma Neuro2a cells, transient transfection with pmKate2-KCNA2m1m2
Method: as §1, §2, §3

[3] = molecular target: Kv1.1 channel (K-Kv1.1); settings: cited from earlier work
Method: (§4) Previously, labeling of HgTx1 with fluorophores Cy3, Cy5, Alexa 488, Alexa 546, Alexa 594, Alexa 660, and Alexa 680 was performed at the cysteine residue introduced instead of alanine 19 [23].

[4] = molecular target: T3, Kv1.3 channel (K-Kv1.3) (Homo sapiens, UniProt P22001); settings: cited from earlier work
T3 construct: expressed in transfected cells; host or cells: Neuro2a cells; tracer A-HgTx bought from Smartox Biotechnology
Method: as §4

[5] = molecular target: T4, human Kv1.2 channel (K-Kv1.2) (Homo sapiens, UniProt P16389, S371T); experiment: Competitive displacement of HgTx-G from complexes with K-Kv1.2 on Neuro2a cells; type: binding; settings: displacement of HgTx-G (0.5 nM), 90-120 min, Cheng-Prusoff, triplicate, mean ± SD, read-out: apparent dissociation constant (Kap), Kv1.2
T4 construct: expressed in transfected cells; host or cells: mouse neuroblastoma Neuro2a cells, transient transfection with pmKate2-KCNA2m1; tracer HgTx-G made in E. coli Rosetta-gami(DE3)pLysS
Method: as §1
Quantitative analysis of the interaction of fluorescent ligands with Kv1.2 was carried out using Image J software (version 1.48, National Institute of Health, Bethesda, MD, USA) as described earlier. This analysis was based on calculating the ratio of the fluorescent intensities of the bound ligand to the channel (Ri) in each selected region of interest on the plasma membrane for the confocal images of 20–25 measured cells, followed by calculating the average value (Rav) and standard deviation.
The peptide concentration (DC50) displacing 50% of the fluorescent ligand from the complex with Kv1.2 was estimated by the dependence of Rav on the concentration (C) of the added peptide at the fixed concentration of the fluorescent ligand:Rav(C)/Rav0 = 1/(1 + C/DC50)(2) […]
The apparent dissociation constant (Kap) of the complex between Kv1.2 and the studied peptide was calculated using the Cheng–Prusoff equation:Kap = DC50/(1 + L/Kd)(3) […]

[6] = molecular target: Kv1.1 channel (K-Kv1.1); settings: similar analytical system, read-out: Kap, Kv1.1; cited from earlier work
Description: Table 2 Sequences of Ce1, Ce4, HgTx1, and MgTx peptides and dissociation constants (Kap, nM) of their complexes with Kv1.2, Kv1.1, and Kv1.3 channels. | column: Kap, nM

[7] = test system: Kv1.2 channels; settings: mammalian cells with depolarized membranes; read-out: 50% inhibition of the Rb+ flux through Kv1.2; cited from earlier work
Description: (§5) Kap of MgTx in our experiments is consistent with the last value.

[8] = test system: human Kv1.2 channels; settings: patch-clamp, mammalian cells; read-out: 50% decrease of current, human Kv1.2; cited from earlier work
Description: as §5

T2 sequence (P16389 whole entry S371T/N469L): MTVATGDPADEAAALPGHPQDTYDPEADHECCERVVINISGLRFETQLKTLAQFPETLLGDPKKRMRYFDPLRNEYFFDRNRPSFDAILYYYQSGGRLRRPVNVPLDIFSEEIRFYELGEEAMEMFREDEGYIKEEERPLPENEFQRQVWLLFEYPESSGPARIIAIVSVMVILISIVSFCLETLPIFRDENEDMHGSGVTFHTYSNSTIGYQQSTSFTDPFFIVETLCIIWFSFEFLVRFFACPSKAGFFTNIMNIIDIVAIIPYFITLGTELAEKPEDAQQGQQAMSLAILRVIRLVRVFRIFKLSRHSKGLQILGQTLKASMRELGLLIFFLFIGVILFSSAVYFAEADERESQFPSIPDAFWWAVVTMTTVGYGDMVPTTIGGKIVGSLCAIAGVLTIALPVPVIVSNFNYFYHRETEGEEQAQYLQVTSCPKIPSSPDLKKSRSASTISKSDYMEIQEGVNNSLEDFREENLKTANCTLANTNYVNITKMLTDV
T3 sequence (P22001 whole entry): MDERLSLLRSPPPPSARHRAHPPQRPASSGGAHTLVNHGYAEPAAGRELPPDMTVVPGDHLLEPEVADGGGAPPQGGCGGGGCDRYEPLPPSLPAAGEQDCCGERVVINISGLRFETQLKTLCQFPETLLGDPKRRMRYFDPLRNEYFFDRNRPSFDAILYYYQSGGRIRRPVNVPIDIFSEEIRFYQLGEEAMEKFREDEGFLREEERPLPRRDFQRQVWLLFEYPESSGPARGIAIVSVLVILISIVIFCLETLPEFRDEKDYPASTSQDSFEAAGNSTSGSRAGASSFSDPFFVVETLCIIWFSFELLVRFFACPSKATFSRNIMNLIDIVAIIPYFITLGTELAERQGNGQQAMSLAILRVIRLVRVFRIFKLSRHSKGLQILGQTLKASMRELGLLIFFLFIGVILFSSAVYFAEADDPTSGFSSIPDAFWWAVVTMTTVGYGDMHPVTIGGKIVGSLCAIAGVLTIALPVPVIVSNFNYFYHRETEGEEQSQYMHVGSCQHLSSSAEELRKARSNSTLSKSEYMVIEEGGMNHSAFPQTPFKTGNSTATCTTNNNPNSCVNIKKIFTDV
T4 sequence (P16389 whole entry S371T): as the sequence (P16389 whole entry S371T/N469L) above, with L469N counted along it
T1 sequence (P16389 whole entry S371T): as the sequence (P16389 whole entry S371T/N469L) above, with L469N counted along it

CC[C@H](C)[C@@H]1NC(=O)CNC(=O)[C@H](Cc2ccccc2)NC(=O)[C@H](CCC(N)=O)NC(=O)[C@H](C)NC(=O)[C@H](CCCCN)NC(=O)[C@@H]2CSSC[C@@H](C(=O)N[C@@H](Cc3ccc(O)cc3)C(=O)N3CCC[C@H]3C(=O)N[C@@H](Cc3c[nH]cn3)C(=O)O)NC(=O)[C@H](CCCCN)NC(=O)[C@@H]3CSSC[C@H](NC(=O)[C@H](CCC(N)=O)NC(=O)[C@H](CCCCN)NC(=O)[C@@H]4CCCN4C(=O)[C@H](CO)NC(=O)[C@H]([C@@H](C)O)NC(=O)[C@@H](NC(=O)[C@H](CCCCN)NC(=O)[C@@H](NC(=O)[C@H](CC(=O)O)NC(=O)[C@@H](NC(=O)[C@@H](NC(=O)[C@@H](NC(=O)CCCN(C)C(=O)c4ccccc4-c4c5ccc(=N)c(S(=O)(=O)O)c-5oc5c(S(=O)(=O)O)c(N)ccc45)[C@@H](C)O)C(C)C)[C@@H](C)CC)C(C)C)CSSC[C@H](NC(=O)[C@H](CCCCN)NC(=O)[C@H](C)NC(=O)CNC(=O)[C@H](C)NC(=O)[C@H](CCCNC(=N)N)NC1=O)C(=O)N[C@@H](CCSC)C(=O)N[C@@H](CC(N)=O)C(=O)NCC(=O)N[C@@H](CCCCN)C(=O)N3)C(=O)N[C@@H](CC(C)C)C(=O)N1CCC[C@H]1C(=O)N1CCC[C@H]1C(=O)N2 [A-HgTx] (X1-[NMeGABA]TVIDVKCTSPKQCLPPCKAQFGIRAGAKCMNGKCKCYPH-OH; disulfide 8-30, 14-35, 18-37; C-terminus assumed)
binding saturation concentration, K-Kv1.2 [1]: ~ 0.5 nM | binding saturation concentration, K-Kv1.2m2 ([2]; concentration dependence of binding, Neuro2a cells): ~ 0.5 nM | Kd ([2]; living Neuro2a cells, complete medium, confocal microscopy, triplicate, mean ± SD, SD, read-out: dissociation constant (Kd) of the complex with K-Kv1.2m2): 0.08 ± 0.02 nM | Kd [3]: 0.7 ± 0.2 nM | Kd [4]: 0.3 ± 0.13 nM

CC[C@H](C)[C@@H]1NC(=O)[C@@H]2CSSC[C@@H]3NC(=O)[C@H](CCCCN)NC(=O)[C@H](CCCNC(=N)N)NC(=O)[C@H](CC(N)=O)NC(=O)[C@H](CCSC)NC(=O)[C@H](CSSC[C@H](NC(=O)[C@H](CO)NC(=O)[C@@H](NC(=O)[C@H](CC(N)=O)NC(=O)[C@@H](NC(=O)[C@@H]4CCCN4C(=O)[C@@H](NC(=O)CN)C(C)C)[C@@H](C)CC)C(C)C)C(=O)N[C@@H]([C@@H](C)O)C(=O)NCC(=O)N[C@@H](CO)C(=O)N4CCC[C@H]4C(=O)N[C@@H](CCC(N)=O)C(=O)N2)NC(=O)[C@H](CCCCN)NC(=O)CNC(=O)[C@H](Cc2ccccc2)NC(=O)[C@H](CCCNC(=N)N)NC(=O)[C@H](CCSC)NC(=O)CNC(=O)[C@H](C)NC(=O)[C@H](CC(=O)O)NC(=O)[C@H](CCCCN)NC(=O)[C@H](CSSC[C@@H](C(=O)N[C@H](C(=O)N2CCC[C@H]2C(=O)N[C@@H](CCCCN)C(=O)O)[C@@H](C)O)NC(=O)[C@H](Cc2c[nH]cn2)NC3=O)NC(=O)[C@@H]2CCCN2C(=O)[C@H](CCCCN)NC1=O [AgTx2]
Kd [5]: 21.5 ± 1.2 nM

CC[C@H](C)[C@H](NC(=O)[C@@H](N)[C@@H](C)O)C(=O)N[C@H](C(=O)N[C@@H](CC(N)=O)C(=O)N[C@H](C(=O)N[C@@H](CCCCN)C(=O)N[C@H]1CSSC[C@@H]2NC(=O)[C@H](CCCCN)NC(=O)[C@H](C)NC(=O)CNC(=O)[C@H](C)NC(=O)[C@H](CO)NC(=O)[C@H](CCC(N)=O)NC(=O)CNC(=O)[C@H](Cc3ccccc3)NC(=O)[C@H](CCC(N)=O)NC(=O)[C@H](C)NC(=O)[C@H](CCCCN)NC(=O)[C@@H]3CSSC[C@@H](C(=O)N[C@@H](Cc4ccc(O)cc4)C(=O)N4CCC[C@H]4C(=O)N[C@@H](Cc4c[nH]cn4)C(=O)O)NC(=O)[C@H](CCCCN)NC(=O)[C@H](CSSC[C@H](NC(=O)[C@H](CCC(N)=O)NC(=O)[C@H](CCCCN)NC(=O)[C@@H]4CCCN4C(=O)[C@H](CO)NC(=O)[C@H]([C@@H](C)O)NC1=O)C(=O)N[C@@H](CC(C)C)C(=O)N1CCC[C@H]1C(=O)N1CCC[C@H]1C(=O)N3)NC(=O)[C@H](CCCCN)NC(=O)CNC(=O)[C@H](CC(N)=O)NC(=O)[C@H](CCSC)NC2=O)C(C)C)[C@@H](C)CC [MgTx, margatoxin] (H-TIINVKCTSPKQCLPPCKAQFGQSAGAKCMNGKCKCYPH-OH; disulfide 7-29, 13-34, 17-36 (inferred); N-terminus and C-terminus assumed)
Kd [6]: 0.3 ± 0.2 nM | IC50 [7]: 0.675 nM | IC50 [8]: 0.006 nM
